Results on 31 molecules are retold here after patent US8232409B2, “Heterocyclic benzimidazoles as TRPM8 modulators” (Janssen Pharmaceutica N.V., priority 2008, dated 2012).

The structures appear in SMILES notation. pIC50: −log10 of the molar value. Structures can show the parent of a compound that is named as a salt.

The pIC50 is −log10 of the IC50, conventionally taken in molar units. Low readings indicate a high IC50, high ones a low IC50.

The target in the assay is T1, canine TRPM8 (Canis lupus familiaris, UniProt Q1A7N1).
T1 construct: expressed in transfected cells
Nature of the assay: In vitro canine TRPM8 functional assay (icilin-induced intracellular Ca2+, FLIPR/FDSS).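 For all read-outs here: intracellular Ca2+ tracked with a Ca2+-sensitive fluorescent dye, compound applied 5 min before icilin was added.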 The settings on record: HEK293 cells stably expressing canine TRPM8; for inhibition at 0.2 µM: 0.200 μM compound, icilin challenge (~80% maximal response), read-out: % Inh. @ 0.200 μM; for pIC50: icilin challenge, eight-point dose-response. In kind it is cell-based.

T1 sequence (Q1A7N1 1-1104): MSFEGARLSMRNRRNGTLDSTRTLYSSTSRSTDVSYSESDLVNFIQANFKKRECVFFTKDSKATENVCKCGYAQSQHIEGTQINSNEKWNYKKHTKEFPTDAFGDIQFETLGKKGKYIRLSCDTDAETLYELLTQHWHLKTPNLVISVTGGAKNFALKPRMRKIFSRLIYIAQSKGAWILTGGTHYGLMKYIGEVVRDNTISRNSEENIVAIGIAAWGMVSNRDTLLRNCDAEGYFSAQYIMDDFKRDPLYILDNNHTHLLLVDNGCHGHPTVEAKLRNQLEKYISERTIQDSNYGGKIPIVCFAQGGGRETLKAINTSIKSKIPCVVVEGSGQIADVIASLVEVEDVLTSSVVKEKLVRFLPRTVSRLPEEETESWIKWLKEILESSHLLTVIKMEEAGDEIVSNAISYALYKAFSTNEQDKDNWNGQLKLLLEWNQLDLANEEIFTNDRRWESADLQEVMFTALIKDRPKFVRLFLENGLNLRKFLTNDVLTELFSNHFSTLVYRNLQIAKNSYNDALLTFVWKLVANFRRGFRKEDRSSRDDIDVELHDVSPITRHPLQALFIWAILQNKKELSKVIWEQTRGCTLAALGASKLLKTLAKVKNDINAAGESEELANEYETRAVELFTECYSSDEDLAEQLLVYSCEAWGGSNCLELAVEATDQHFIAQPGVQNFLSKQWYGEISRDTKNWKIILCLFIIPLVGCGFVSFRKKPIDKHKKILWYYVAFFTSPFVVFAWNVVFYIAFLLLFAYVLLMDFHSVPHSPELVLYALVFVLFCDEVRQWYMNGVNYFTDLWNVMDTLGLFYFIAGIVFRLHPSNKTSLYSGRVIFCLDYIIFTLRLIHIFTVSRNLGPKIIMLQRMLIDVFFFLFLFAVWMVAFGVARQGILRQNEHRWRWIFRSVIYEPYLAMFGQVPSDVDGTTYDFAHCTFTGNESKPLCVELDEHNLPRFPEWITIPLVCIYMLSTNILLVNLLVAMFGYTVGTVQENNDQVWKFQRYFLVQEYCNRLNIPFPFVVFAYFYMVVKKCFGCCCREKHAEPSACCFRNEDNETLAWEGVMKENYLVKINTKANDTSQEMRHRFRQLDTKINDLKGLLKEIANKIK

`FC(F)(F)Oc1ccccc1-c1ccc2nc(C3=NC4(CCCCC4)CO3)[nH]c2c1` [Cpd 2, 2-[5-(2-Trifluoromethoxy-phenyl)-1H-benzimidazol-2-yl]-3-oxa-1-aza-spiro[4.5]dec-1-ene]: the inhibition at 0.2 µM was found to be 106% and the negative logarithm of the IC50 (pIC50) was 8.15.

As for `FC(F)(F)Oc1ccccc1-c1ccc2[nH]c(C3=NCC4(CCCCC4)O3)nc2c1` [Cpd 3, 2-[5-(2-Trifluoromethoxy-phenyl)-1H-benzimidazol-2-yl]-1-oxa-3-aza-spiro[4.5]dec-2-ene], the inhibition at 0.2 µM is 60%.

Take `FC(F)(F)c1ccccc1-c1ccc2[nH]c(C3=NCC4(CCCCC4)O3)nc2c1` [Cpd 4, 2-[5-(2-Trifluoromethyl-phenyl)-1H-benzimidazol-2-yl]-1-oxa-3-aza-spiro[4.5]dec-2-ene]: the inhibition at 0.2 µM was found to be 84%.

As for `FC(F)(F)c1ccccc1-c1ccc2[nH]c(C3=NOC4(CCOCC4)C3)nc2c1` [Cpd 9, 3-[5-(2-Trifluoromethylphenyl)-1H-benzimidazol-2-yl]-1,8-dioxa-2-aza-spiro[4.5]dec-2-ene], the inhibition at 0.2 µM amounted to 101%.

As for `FC(F)(F)Cc1ccccc1-c1ccc2[nH]c(C3=NOC4(CCCCC4)C3)nc2c1` [Cpd 11, 3-{5-[2-(2,2,2-Trifluoroethyl)-phenyl]-1H-benzimidazol-2-yl}-1-oxa-2-aza-spiro[4.5]dec-2-ene], the inhibition at 0.2 µM turned out to be 102% and the pIC50 was 8.82.

As to `Fc1cc(-c2ccccc2C(F)(F)F)cc2nc(C3=NOC4(CCCCC4)C3)[nH]c12` [Cpd 14, 3-[7-Fluoro-5-(2-trifluoromethyl-phenyl)-1H-benzimidazol-2-yl]-1-oxa-2-aza-spiro[4.5]dec-2-ene hydrochloride], the inhibition at 0.2 µM is 102%.

With `CC1C(c2nc3cc(-c4ccccc4C(F)(F)F)ccc3[nH]2)=NOC12CCCCC2` (stereo not drawn) [Cpd 15, 4-Methyl-3-[5-(2-trifluoromethyl-phenyl)-1H-benzimidazol-2-yl]-1-oxa-2-aza-spiro[4.5]dec-2-ene hydrochloride], the inhibition at 0.2 µM was 102% and the pIC50 is 8.41.

For `Cc1cc(-c2ccccc2OC(F)F)cc2nc(C3=NOC4(CCCCC4)C3)[nH]c12` [Cpd 20, 3-[5-(2-Difluoromethoxyphenyl)-7-methyl-1H-benzimidazol-2-yl]-1-oxa-2-aza-spiro[4.5]dec-2-ene hydrochloride], the inhibition at 0.2 µM stood at 103% and the pIC50 was 8.74.

For `OCCCc1cc(-c2ccccc2C(F)(F)F)cc2nc(C3=NOC4(CCCCC4)C3)[nH]c12` [Cpd 22, 3-[2-(1-Oxa-2-aza-spiro[4.5]dec-2-en-3-yl)-6-(2-trifluoromethylphenyl)-3H-benzimidazol-4-yl]-propan-1-ol hydrochloride], the inhibition at 0.2 µM stood at 103%.

As for `Fc1ccccc1-c1ccc2[nH]c(C3=NOC4(CCCCC4)C3)nc2c1` [Cpd 23, 3-[5-(2-Fluoro-phenyl)-1H-benzimidazol-2-yl]-1-oxa-2-aza-spiro[4.5]dec-2-ene trifluoroacetic acid salt], the inhibition at 0.2 µM was 103%.

`Cc1c(-c2ccccc2C(F)(F)F)ccc2[nH]c(C3=NOC4(CCCCC4)C3)nc12` [Cpd 24, 3-[4-Methyl-5-(2-trifluoromethyl-phenyl)-1H-benzimidazol-2-yl]-1-oxa-2-aza-spiro[4.5]dec-2-ene hydrochloride]: the inhibition at 0.2 µM worked out at 103% and the pIC50 is 8.25.

On to `OC/C=C\c1cc(-c2ccccc2C(F)(F)F)cc2nc(C3=NOC4(CCCCC4)C3)[nH]c12` [Cpd 25, 3-[2-(1-Oxa-2-aza-spiro[4.5]dec-2-en-3-yl)-6-(2-trifluoromethylphenyl)-3H-benzimidazol-4-yl]-prop-2-en-1-ol], for which the inhibition at 0.2 µM came out at 100% and the pIC50 was 9.10.

Turning to `Fc1cccc(F)c1-c1ccc2[nH]c(C3=NOC4(CCCCC4)C3)nc2c1` [Cpd 26, 3-[5-(2,6-Difluoro-phenyl)-1H-benzimidazol-2-yl]-1-oxa-2-aza-spiro[4.5]dec-2-ene trifluoroacetic acid salt], the inhibition at 0.2 µM came to 100%.

For the molecule `FC(F)(F)c1ccccc1-c1ccc2[nH]c(C3=NC4(CCOCC4)CO3)nc2c1` [Cpd 29, 2-[5-(2-Trifluoromethyl-phenyl)-1H-benzimidazol-2-yl]-3,8-dioxa-1-aza-spiro[4.5]dec-1-ene], the inhibition at 0.2 µM amounted to 71% and the pIC50 was 7.00.

In the case of `Fc1ccccc1-c1ccc2[nH]c(C3=NOC4(CCOCC4)C3)nc2c1` [Cpd 31, 3-[5-(2-Fluoro-phenyl)-1H-benzimidazol-2-yl]-1,8-dioxa-2-aza-spiro[4.5]dec-2-ene hydrochloride], the inhibition at 0.2 µM came out at 99% and the pIC50 was 7.87.

Take `Cc1cc(-c2ccccc2C(F)(F)F)cc2nc(C3=NOC4(CCOCC4)C3)[nH]c12` [Cpd 32, 3-[7-Methyl-5-(2-trifluoromethyl-phenyl)-1H-benzimidazol-2-yl]-1,8-dioxa-2-aza-spiro[4.5]dec-2-ene hydrochloride]: the inhibition at 0.2 µM is 100% and the pIC50 is 8.31.

As for `FC(F)(F)c1ccccc1-c1cc(Br)c2[nH]c(C3=NOC4(CCOCC4)C3)nc2c1` [Cpd 33, 3-[7-Bromo-5-(2-trifluoromethyl-phenyl)-1H-benzimidazol-2-yl]-1,8-dioxa-2-aza-spiro[4.5]dec-2-ene hydrochloride], the inhibition at 0.2 µM worked out at 100% and the pIC50 was 8.77.

On to `N#Cc1cc(-c2ccccc2C(F)(F)F)cc2nc(C3=NOC4(CCOCC4)C3)[nH]c12` [Cpd 35, 2-(1,8-Dioxa-2-aza-spiro[4.5]dec-2-en-3-yl)-6-(2-trifluoromethyl-phenyl)-3H-benzimidazole-4-carbonitrile hydrochloride], for which the inhibition at 0.2 µM turned out to be 100% and the pIC50 is 8.28.

On to `CC1(C)CCC2(CC1)CC(c1nc3cc(-c4ccccc4C(F)(F)F)ccc3[nH]1)=NO2` [Cpd 36, 8,8-Dimethyl-3-[5-(2-trifluoromethyl-phenyl)-1H-benzimidazol-2-yl]-1-oxa-2-aza-spiro[4.5]dec-2-ene hydrochloride], for which the inhibition at 0.2 µM turned out to be 99% and the pIC50 is 7.90.

As to `CC1(C)CCC2(CC1)CC(c1nc3cc(-c4ccccc4Cl)ccc3[nH]1)=NO2` [Cpd 37, 3-[5-(Chloro-phenyl)-1H-benzimidazol-2-yl]-8,8-dimethyl-1-oxa-2-aza-spiro[4.5]dec-2-ene hydrochloride], the inhibition at 0.2 µM was determined as 99% and the pIC50 was 8.28.

For the molecule `Fc1cccc(F)c1-c1ccc2[nH]c(C3=NOC4(CCOCC4)C3)nc2c1` [Cpd 38, 3-[5-(2,6-Difluoro-phenyl)-1H-benzimidazol-2-yl]-1,8-dioxa-2-aza-spiro[4.5]dec-2-ene hydrochloride], the inhibition at 0.2 µM is 99% and the pIC50 was 8.08.

In the case of `CC1(C)CCC2(CC1)CC(c1nc3cc(-c4ccccc4C(F)(F)F)cc(C(F)(F)F)c3[nH]1)=NO2` [Cpd 39, 8,8-Dimethyl-3-[7-trifluoromethyl-5-(2-trifluoromethyl-phenyl)-1H-benzimidazol-2-yl]-1-oxa-2-aza-spiro[4.5]dec-2-ene hydrochloride], the inhibition at 0.2 µM was determined as 99% and the pIC50 was 8.20.

With `Clc1ccccc1-c1ccc2[nH]c(C3=NOC4(CCOCC4)C3)nc2c1` [Cpd 40, 3-[5-(2-Chloro-phenyl)-1H-benzimidazol-2-yl]-1,8-dioxa-2-aza-spiro[4.5]dec-2-ene hydrochloride], the inhibition at 0.2 µM is 98% and the pIC50 is 7.96.

In the case of `CC1(C)CCC2(CC1)CC(c1nc3cc(-c4ccccc4C(F)(F)F)cc(Cl)c3[nH]1)=NO2` [Cpd 41, 3-[7-Chloro-5-(2-trifluoromethyl-phenyl)-1H-benzimidazol-2-yl]-8,8-dimethyl-1-oxa-2-aza-spiro[4.5]dec-2-ene hydrochloride], the inhibition at 0.2 µM came to 92% and the pIC50 is 7.30.

As to `CC(C)(O)CCc1cc(-c2ccccc2C(F)(F)F)cc2nc(C3=NOC4(CCCCC4)C3)[nH]c12` [Cpd 43, 2-Methyl-4-[2-(1-oxa-2-aza-spiro[4.5]dec-2-en-3-yl)-6-(2-trifluoromethylphenyl)-3H-benzimidazol-4-yl]-butan-2-ol], the inhibition at 0.2 µM came to 99% and the pIC50 was 8.77.

For `Fc1cccc(F)c1-c1cc(Cl)c2[nH]c(C3=NOC4(CCCCC4)C3)nc2c1` [Cpd 44, 3-[7-Chloro-5-(2,6-difluorophenyl)-1H-benzimidazol-2-yl]-1-oxa-2-aza-spiro[4.5]dec-2-ene methanesulfonate], the inhibition at 0.2 µM came out at 100% and the pIC50 was 8.68.

Consider `Clc1ccccc1-c1ccc2[nH]c(C3=NOC4(CCCCC4)C3)nc2c1` [Cpd 45, 3-[5-(2-Chlorophenyl)-1H-benzimidazol-2-yl]-1-oxa-2-aza-spiro[4.5]dec-2-ene hydrochloride], for which the inhibition at 0.2 µM worked out at 97%.

With `Cc1cc(-c2ccccc2C(F)(F)F)cc2nc(C3=NOC4(CCCCC4)C3)[nH]c12` [Cpd 46, 3-[7-Methyl-5-(2-trifluoromethylphenyl)-1H-benzimidazol-2-yl]-1-oxa-2-aza-spiro[4.5]dec-2-ene hydrochloride], the inhibition at 0.2 µM was determined as 97% and the pIC50 is 8.74.

On to `Cc1cc(-c2ccccc2F)cc2nc(C3=NOC4(CCCCC4)C3)[nH]c12` [Cpd 47, 3-[7-Methyl-5-(2-fluorophenyl)-1H-benzimidazol-2-yl]-1-oxa-2-aza-spiro[4.5]dec-2-ene hydrochloride], for which the inhibition at 0.2 µM turned out to be 97% and the pIC50 was 8.16.

With `Cc1cc(-c2c(F)cccc2F)cc2nc(C3=NOC4(CCCCC4)C3)[nH]c12` [Cpd 48, 3-[7-Methyl-5-(2,6-difluorophenyl)-1H-benzimidazol-2-yl]-1-oxa-2-aza-spiro[4.5]dec-2-ene hydrochloride], the inhibition at 0.2 µM was determined as 97% and the pIC50 was 8.41.

In the case of `Fc1ccccc1-c1cc(Cl)c2[nH]c(C3=NOC4(CCCCC4)C3)nc2c1` [Cpd 49, 3-[7-Chloro-5-(2-fluorophenyl)-1H-benzimidazol-2-yl]-1-oxa-2-aza-spiro[4.5]dec-2-ene methanesulfonate], the inhibition at 0.2 µM was determined as 101% and the pIC50 is 8.21.
